Measurements taken from ChEMBL document CHEMBL4043156, “Functionalization of peptide nucleolipid bioconjugates and their structure anti-cancer activity relationship studies” (Bioorg Med Chem Lett, 2017).
The source made the active and inactive calls. The rule behind the calls is not given here.

Legend:
MM1.S [1] = experiment: Induction of apoptosis in human MM1S cells at 2.5 uM after 24 hrs by Annexin V-FITC/propidium iodide based FACS analysis; assay type: functional, cell-based
MM1.S [2] = experiment: Induction of apoptosis in human MM1S cells assessed as increase in necrotic cells at 2.5 uM after 24 hrs by Annexin V-FITC/propidium iodide based FACS analysis; assay type: functional, cell-based

| Compound | Activity (MM1.S [1]) | Activity (MM1.S [2]) |
| --- | --- | --- |
| Cc1cn([C@H]2C[C@H](OCCNCc3c[nH]cn3)[C@@H](C(=O)NCCCC[C@@H](NC(=O)[C@@H](C)NC(=O)[C@@H](CCCCN)NC(=O)[C@@H](C)NC(=O)[C@@H](CC(C)C)NC(=O)[C@@H](CCCCN)NC(=O)[C@@H](C)NC(=O)[C@@H](CC(C)C)NC(=O)[C@@H](CCCCN)NC(=O)CCCCCN)C(=O)O)O2)c(=O)[nH]c1=O | Active | Active |
| Cc1cn([C@H]2C[C@H](OCCNCCCNCCCCNCCCN)[C@@H](C(=O)NCCCC[C@@H](NC(=O)[C@@H](C)NC(=O)[C@@H](CCCCN)NC(=O)[C@@H](C)NC(=O)[C@@H](CC(C)C)NC(=O)[C@@H](CCCCN)NC(=O)[C@@H](C)NC(=O)[C@@H](CC(C)C)NC(=O)[C@@H](CCCCN)NC(=O)CCCCCN)C(=O)O)O2)c(=O)[nH]c1=O | inactive | inactive |
| CNCCO[C@H]1C[C@H](n2cc(C)c(=O)[nH]c2=O)O[C@@H]1C(=O)NCCCC[C@@H](NC(=O)[C@@H](C)NC(=O)[C@@H](CCCCN)NC(=O)[C@@H](C)NC(=O)[C@@H](CC(C)C)NC(=O)[C@@H](CCCCN)NC(=O)[C@@H](C)NC(=O)[C@@H](CC(C)C)NC(=O)[C@@H](CCCCN)NC(=O)CCCCCN)C(=O)O | inactive | inactive |
| Cc1cn([C@H]2C[C@H](OCCNCCCN)[C@@H](C(=O)NCCCC[C@@H](NC(=O)[C@@H](C)NC(=O)[C@@H](CCCCN)NC(=O)[C@@H](C)NC(=O)[C@@H](CC(C)C)NC(=O)[C@@H](CCCCN)NC(=O)[C@@H](C)NC(=O)[C@@H](CC(C)C)NC(=O)[C@@H](CCCCN)NC(=O)CCCCCN)C(=O)O)O2)c(=O)[nH]c1=O | inactive | inactive |
| CCCCCCCCNCCO[C@H]1C[C@H](n2cc(C)c(=O)[nH]c2=O)O[C@@H]1C(=O)NCCCC[C@@H](NC(=O)[C@@H](C)NC(=O)[C@@H](CCCCN)NC(=O)[C@@H](C)NC(=O)[C@@H](CC(C)C)NC(=O)[C@@H](CCCCN)NC(=O)[C@@H](C)NC(=O)[C@@H](CC(C)C)NC(=O)[C@@H](CCCCN)NC(=O)CCCCCN)C(=O)O | inactive | inactive |
